From PubChem BioAssay (NCI)
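GI50 marks 50% less growth. TGI denotes the concentration required for complete inhibition of growth.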

Columns and labels:
Assay in all cases: growth of human tumour cells (NCI), 384-well format
A549 NSCLC = tested on: A549 NSCLC
COLO 205 colon = tested on: COLO 205 colon
MALME-3M melanoma = tested on: MALME-3M melanoma
HT29 colon = tested on: HT29 colon
LOX IMVI melanoma = tested on: LOX IMVI melanoma
TK-10 renal = tested on: TK-10 renal
SNB-19 CNS = tested on: SNB-19 CNS
HCT-15 colon = tested on: HCT-15 colon
RPMI-8226 leukemia = tested on: RPMI-8226 leukemia
OVCAR-8 ovarian = tested on: OVCAR-8 ovarian
DU-145 prostate = tested on: DU-145 prostate
KM12 colon = tested on: KM12 colon
MDA-MB-468 breast = tested on: MDA-MB-468 breast
MCF7 breast = tested on: MCF7 breast
UACC-257 melanoma = tested on: UACC-257 melanoma
UACC-62 melanoma = tested on: UACC-62 melanoma
NCI-H522 lung = tested on: NCI-H522 lung
MOLT-4 leukemia = tested on: MOLT-4 leukemia
MDA-MB-435 melanoma = tested on: MDA-MB-435 melanoma
PC-3 prostate = tested on: PC-3 prostate
A498 renal = tested on: A498 renal
HS 578T breast = tested on: HS 578T breast
HCT-116 colon = tested on: HCT-116 colon
786-0 renal = tested on: 786-0 renal
CCRF-CEM leukemia = tested on: CCRF-CEM leukemia
SK-MEL-28 melanoma = tested on: SK-MEL-28 melanoma
ACHN renal = tested on: ACHN renal
SK-MEL-5 melanoma = tested on: SK-MEL-5 melanoma
OVCAR-4 ovarian = tested on: OVCAR-4 ovarian
RXF 393 renal = tested on: RXF 393 renal
NCI/ADR-RES ovarian = tested on: NCI/ADR-RES ovarian
IGROV1 ovarian = tested on: IGROV1 ovarian
UO-31 renal = tested on: UO-31 renal
M14 melanoma = tested on: M14 melanoma
SF-295 CNS = tested on: SF-295 CNS
EKVX NSCLC = tested on: EKVX NSCLC
NCI-H226 lung = tested on: NCI-H226 lung
HOP-92 NSCLC = tested on: HOP-92 NSCLC
NCI-H322M lung = tested on: NCI-H322M lung
NCI-H460 NSCLC = tested on: NCI-H460 NSCLC
U251 glioblastoma = tested on: U251 glioblastoma
SNB-75 CNS = tested on: SNB-75 CNS
HL-60(TB) leukemia = tested on: HL-60(TB) leukemia
BT-549 breast = tested on: BT-549 breast
HOP-62 NSCLC = tested on: HOP-62 NSCLC
SK-OV-3 ovarian = tested on: SK-OV-3 ovarian
CAKI-1 renal = tested on: CAKI-1 renal
HCC-2998 colon = tested on: HCC-2998 colon
SF-268 CNS = tested on: SF-268 CNS
OVCAR-3 ovarian = tested on: OVCAR-3 ovarian
T-47D breast = tested on: T-47D breast
K-562 leukemia = tested on: K-562 leukemia
SW-620 colon = tested on: SW-620 colon
NCI-H23 lung = tested on: NCI-H23 lung
SF-539 CNS = tested on: SF-539 CNS
SN12C renal = tested on: SN12C renal
MDA-MB-231 breast = tested on: MDA-MB-231 breast

Compound: Cn1ncc(C#N)c1-c1ccc2c(c1)CN([C@H](CN)Cc1cccc(F)c1)C2=O
- GI50 (A549 NSCLC): 12.2 µM
- TGI (A549 NSCLC): 75.1 µM
- GI50 (COLO 205 colon): 4.91 µM
- TGI (COLO 205 colon): 25.4 µM
- GI50 (MALME-3M melanoma): 1.76 µM
- TGI (MALME-3M melanoma): 14.8 µM
- GI50 (HT29 colon): 4.87 µM
- TGI (HT29 colon): 94.5 µM
- GI50 (LOX IMVI melanoma): 27.6 µM
- TGI (LOX IMVI melanoma): > 100 µM
- GI50 (TK-10 renal): 10.1 µM
- TGI (TK-10 renal): 42.8 µM
- GI50 (SNB-19 CNS): 13.7 µM
- TGI (SNB-19 CNS): 67.3 µM
- GI50 (HCT-15 colon): 16.3 µM
- TGI (HCT-15 colon): > 100 µM
- GI50 (RPMI-8226 leukemia): 12.9 µM
- TGI (RPMI-8226 leukemia): 26.1 µM
- GI50 (OVCAR-8 ovarian): 24.3 µM
- TGI (OVCAR-8 ovarian): > 100 µM
- GI50 (DU-145 prostate): 16.5 µM
- TGI (DU-145 prostate): 44.9 µM
- GI50 (KM12 colon): 0.841 µM
- TGI (KM12 colon): 20.4 µM
- GI50 (MDA-MB-468 breast): 0.0967 µM
- TGI (MDA-MB-468 breast): 3.28 µM
- GI50 (MCF7 breast): 0.498 µM
- TGI (MCF7 breast): 16.3 µM
- GI50 (UACC-257 melanoma): 12.5 µM
- TGI (UACC-257 melanoma): 31.1 µM
- GI50 (UACC-62 melanoma): 4.27 µM
- TGI (UACC-62 melanoma): 19.8 µM
- GI50 (NCI-H522 lung): 13.3 µM
- TGI (NCI-H522 lung): 27 µM
- GI50 (MOLT-4 leukemia): 0.129 µM
- TGI (MOLT-4 leukemia): 2.38 µM
- GI50 (MDA-MB-435 melanoma): 15.8 µM
- TGI (MDA-MB-435 melanoma): 43.3 µM
- GI50 (PC-3 prostate): 0.436 µM
- TGI (PC-3 prostate): 16.7 µM
- GI50 (A498 renal): 0.269 µM
- TGI (A498 renal): 16.7 µM
- GI50 (HS 578T breast): 1.57 µM
- TGI (HS 578T breast): 19.8 µM
- GI50 (HCT-116 colon): 10.8 µM
- TGI (HCT-116 colon): 23.2 µM
- GI50 ([…]-0 renal): 0.324 µM
- TGI (786-0 renal): 21.2 µM
- GI50 (CCRF-CEM leukemia): 0.675 µM
- TGI (CCRF-CEM leukemia): 14.6 µM
- GI50 (SK-MEL-28 melanoma): 3.34 µM
- TGI (SK-MEL-28 melanoma): 33.4 µM
- GI50 (ACHN renal): 17.3 µM
- TGI (ACHN renal): 93.9 µM
- GI50 (SK-MEL-5 melanoma): 6.5 µM
- TGI (SK-MEL-5 melanoma): 20 µM
- GI50 (OVCAR-4 ovarian): 35.7 µM
- TGI (OVCAR-4 ovarian): > 100 µM
- GI50 (RXF 393 renal): 0.433 µM
- TGI (RXF 393 renal): 11.9 µM
- GI50 (NCI/ADR-RES ovarian): > 100 µM
- TGI (NCI/ADR-RES ovarian): > 100 µM
- GI50 (IGROV1 ovarian): 0.0552 µM
- TGI (IGROV1 ovarian): 10.4 µM
- GI50 (UO-31 renal): 13.4 µM
- TGI (UO-31 renal): 46.7 µM
- GI50 (M14 melanoma): 11.2 µM
- TGI (M14 melanoma): 26.8 µM
- GI50 (SF-295 CNS): 0.668 µM
- TGI (SF-295 CNS): 16.5 µM
- GI50 (EKVX NSCLC): 11.1 µM
- TGI (EKVX NSCLC): 40.3 µM
- GI50 (NCI-H226 lung): 14.4 µM
- TGI (NCI-H226 lung): 39.1 µM
- GI50 (HOP-92 NSCLC): 6.45 µM
- TGI (HOP-92 NSCLC): 31.4 µM
- GI50 (NCI-H322M lung): 16.9 µM
- TGI (NCI-H322M lung): 70.2 µM
- GI50 (NCI-H460 NSCLC): 0.582 µM
- TGI (NCI-H460 NSCLC): 33.3 µM
- GI50 (U251 glioblastoma): 11.1 µM
- TGI (U251 glioblastoma): 68.7 µM
- GI50 (SNB-75 CNS): 0.299 µM
- TGI (SNB-75 CNS): 14 µM
- GI50 (HL-60(TB) leukemia): 15.9 µM
- TGI (HL-60(TB) leukemia): 29.5 µM
- GI50 (BT-549 breast): 0.943 µM
- TGI (BT-549 breast): 17.9 µM
- GI50 (HOP-62 NSCLC): 23 µM
- TGI (HOP-62 NSCLC): 71.1 µM
- GI50 (SK-OV-3 ovarian): 0.534 µM
- TGI (SK-OV-3 ovarian): 23.2 µM
- GI50 (CAKI-1 renal): 5.91 µM
- TGI (CAKI-1 renal): 40.8 µM
- GI50 (HCC-2998 colon): 11 µM
- TGI (HCC-2998 colon): 47.2 µM
- GI50 (SF-268 CNS): 19.2 µM
- TGI (SF-268 CNS): 58.5 µM
- GI50 (OVCAR-3 ovarian): 11.8 µM
- TGI (OVCAR-3 ovarian): 32.4 µM
- GI50 (T-47D breast): 0.0502 µM
- TGI (T-47D breast): 19.5 µM
- GI50 (K-562 leukemia): 15.3 µM
- TGI (K-562 leukemia): 43.7 µM
- GI50 (SW-620 colon): 27.5 µM
- TGI (SW-620 colon): 82 µM
- GI50 (NCI-H23 lung): 14.6 µM
- TGI (NCI-H23 lung): 34.8 µM
- GI50 (SF-539 CNS): 0.394 µM
- TGI (SF-539 CNS): 33.4 µM
- GI50 (SN12C renal): 17.6 µM
- TGI (SN12C renal): 65.9 µM
- GI50 (MDA-MB-231 breast): 21.8 µM
- TGI (MDA-MB-231 breast): 74.7 µM
